Data taken from US4973675A, “Hybrid nitrosoureidoanthracyclines having antitumor activity” (University of Tennessee Research Center, priority 1989, dated 1990).
“Also recorded” adds a separate entry of the source. Like-named read-outs stand apart in the source and are kept apart here.

Key:
murine P388 leukemia = assay: In vivo antitumor activity vs. murine P388 (P388/S) leukemia; parameters: species or system murine (B6D2F1 males); conditions: for Range of deaths (dying animals) / Long-term survivors / Median increase in lifespan / Net mean percent weight change, day 7 / Median survival / Range of death (dying animals): ip
Text: Initial studies utilized a multiple dose schedule, with drug administered once daily on days 1, 2, 3 and 4. […] The marked activity of AD 312 in this system has been confirmed in multiple separate experiments.
Additional studies were done with AD 312 vs. murine P388/S under more demanding conditions of assay.
^a Summary results of 4 separate experiments. B6D2F1 males; 1 ×

white blood cells = assay: Hematotoxicity study in non-tumor-bearing animals, white blood cell count; assay type: in vivo, mice
Text: FIG. 3 is a graphic representation of white blood cell counts in mice following a single dose of 2-chloroethylnitrosoureidodaunorubicin.
(§1) Clinically and in laboratory animals, anthracycline antibiotics and chloroethylnitrosourea alkylating agents currently used in medical oncology are known to be strongly myelosuppressive, with the effects of the alkylating agents on suppression of bone marrow activity being particularly profound and long-lasting.

red blood cells = assay: Hematotoxicity study in non-tumor-bearing animals, red blood cell count; assay type: in vivo, mice; conditions: 3 dose levels
Text: as §1

[1] = Solubility in water or saline; assay type: physicochemical
Protocol: Accordingly, the compounds are formulated for administration by dissolving the compound in a pharmaceutically acceptable non-toxic carrier which contains a surfactant. The present inventors employ a formulation of 10% Cremaphor EL (a polyhydroxylated castor oil derivative) available from BASF Chemicals, 10% ethanol and 80% aqueous media (sterile water or saline solution). That quantity of the compound desired for establishing an effective dose is dissolved in a 1:1 mixture of Cremaphor EL and ethanol. Thereafter, sufficient aqueous medium is added with stirring to develop a final formulation containing 80% aqueous medium. This formulation is administered parenterally.

[2] = tested on: murine P388/adriamycin-resistant leukemia; assay: In vivo antitumor activity vs. murine P388/adriamycin-resistant leukemia (P388/ADR); conditions: for Median increase in lifespan / Net mean percent weight change, day 7 / Long-term survivors / Range of death (dying animals): ip; for Long-term survivors: sacrifice day 60
Text: Assays were run essentially according to the established protocols of the U.S. National Cancer Institute (Geran et al., 1972 "Protocols for Screening Chemical Agents and Natural Products Against Animal Tumors and Other Biological Systems" (3rd Ed.), Cancer Chemotherapy Rep. [3]33, 1-103.), with the test agent given at 3-5 incremental dose levels in each screening experiment and with median survival of treated groups referenced against data for untreated controls.
*B6D2F1 males; 1 × 10^6 tumor cell inoculum ip day 0; treatment

[3] = P388/ADR, single dose 40.5 mg/kg day 1

Structure (SMILES): COc1cccc2c1C(=O)c1c(O)c3c(c(O)c1C2=O)C[C@@](O)(C(C)=O)C[C@@H]3O[C@H]1C[C@H](NC(=O)N(CCCl)N=O)[C@H](O)[C@H](C)O1 [AD 312, 2-chloroethylnitrosoureidodaunorubicin]
- Range of deaths (dying animals) (murine P388 leukemia; 12.5 mg/kg qd 1-4): 35 to 40 days
- Long-term survivors (murine P388 leukemia; 12.5 mg/kg qd 1-4, sacrifice day 64): 4/7
- Median increase in lifespan (murine P388 leukemia; 15.0 mg/kg qd 1-4): > +540%
- Net mean percent weight change, day 7 (murine P388 leukemia; 15.0 mg/kg qd 1-4): -1%
- Range of deaths (dying animals) (murine P388 leukemia; 15.0 mg/kg qd 1-4): 32 to 39 days
- Long-term survivors (murine P388 leukemia; 15.0 mg/kg qd 1-4, sacrifice day 64): 4/7
- Median increase in lifespan (murine P388 leukemia; 17.5 mg/kg qd 1-4): > +540%
- Net mean percent weight change, day 7 (murine P388 leukemia; 17.5 mg/kg qd 1-4): -1%
- Long-term survivors (murine P388 leukemia; 17.5 mg/kg qd 1-4, sacrifice day 64): 6/6
- Median increase in lifespan (murine P388 leukemia; 18.0 mg/kg day 1 only): +210%
- Median survival (murine P388 leukemia; 18.0 mg/kg day 1 only): 31 days
- Net mean percent weight change, day 7 (murine P388 leukemia; 18.0 mg/kg day 1 only): +7%
- Range of death (dying animals) (murine P388 leukemia; 18.0 mg/kg day 1 only): 18 to 35 days
- Long-term survivors (murine P388 leukemia; 18.0 mg/kg day 1 only, sacrifice day 60): 1/7
- Median increase in lifespan (murine P388 leukemia; 27.0 mg/kg day 1 only): +230%
- Median survival (murine P388 leukemia; 27.0 mg/kg day 1 only): 33 days
- Net mean percent weight change, day 7 (murine P388 leukemia; 27.0 mg/kg day 1 only): +9%
- Range of death (dying animals) (murine P388 leukemia; 27.0 mg/kg day 1 only): 23 to 33 days
- Long-term survivors (murine P388 leukemia; 27.0 mg/kg day 1 only, sacrifice day 60): 3/7
- Long-term survivors (murine P388 leukemia; 27.0 mg/kg day 3 only): 0/7
- Median increase in lifespan (murine P388 leukemia; 27.0 mg/kg day 3 only): +210%
- Median survival (murine P388 leukemia; 27.0 mg/kg day 3 only): 31 days
- Net mean percent weight change, day 7 (murine P388 leukemia; 27.0 mg/kg day 3 only): +17%
- Range of death (dying animals) (murine P388 leukemia; 27.0 mg/kg day 3 only): 12 to 49 days
- Median increase in lifespan (murine P388 leukemia; 40.5 mg/kg day 1 only): > +500%
- Net mean percent weight change, day 7 (murine P388 leukemia; 40.5 mg/kg day 1 only): -3%
- Long-term survivors (murine P388 leukemia; 40.5 mg/kg day 1 only, sacrifice day 60): 7/7
- Median increase in lifespan (murine P388 leukemia; 40.5 mg/kg day 3 only): > +500%
- Net mean percent weight change, day 7 (murine P388 leukemia; 40.5 mg/kg day 3 only): -4%
- Range of death (dying animals) (murine P388 leukemia; 40.5 mg/kg day 3 only): 45 days
- Long-term survivors (murine P388 leukemia; 40.5 mg/kg day 3 only, sacrifice day 60): 6/7
- toxicity / myelosuppression at curative doses (murine P388 leukemia; tumor-bearing animals): No such effect appears to be present in tumor-bearing animals; also recorded: lack of toxicity at the curative dose levels
- acute toxicity (white blood cells; dose 60.75 mg/kg): still not at an acute toxic level
- recovery of white blood cell count (white blood cells; dose 60.75 mg/kg): rapid recovery again being achieved
- reduction in white blood cell count (white blood cells; dose 60.75 mg/kg, day 4): about 67%
- day of white blood cell nadir (white blood cells; single dose 40.5 mg/kg): 4 days
- full recovery of white blood cell count (white blood cells; single dose 40.5 mg/kg): ≤ 10 days
- lowering of white blood cell count (white blood cells; single dose 40.5 mg/kg): only a modest lowering of the white blood cell count
- white blood cell count nadir (white blood cells; single dose 40.5 mg/kg, day 4, median 9×10^6 before drug): 6×10^6 cells/ml
- change in red blood cell counts (red blood cells): No significant change in red blood cells counts
- solubility ([1]; water or saline solution): essentially insoluble in water or saline solution
- solubility ([1]; water, of the order of, read-out: solubility in water): < 25 µg/mL
- curative rate ([2]; P388/ADR, once daily for 4 days, 15.0 to 20.0 mg/kg/day (3 dose levels)): 100%
- dose toxicity [2, 3]: nontoxic
- therapeutic effect [2, 3]: significant therapeutic effect
- Median increase in lifespan ([2]; 15.0 mg/kg qd 1-4): > +500%
- Net mean percent weight change, day 7 ([2]; 15.0 mg/kg qd 1-4): -4%
- Long-term survivors ([2]; 15.0 mg/kg qd 1-4): 7/7
- Median increase in lifespan ([2]; 17.5 mg/kg qd 1-4): > +500%
- Net mean percent weight change, day 7 ([2]; 17.5 mg/kg qd 1-4): -9%
- Long-term survivors ([2]; 17.5 mg/kg qd 1-4): 7/7
- Median increase in lifespan ([2]; 20.0 mg/kg qd 1-4): > +500%
- Net mean percent weight change, day 7 ([2]; 20.0 mg/kg qd 1-4): -9%
- Long-term survivors ([2]; 20.0 mg/kg qd 1-4): 7/7
- Median increase in lifespan ([2]; 27.0 mg/kg d1 only): > +500%
- Net mean percent weight change, day 7 ([2]; 27.0 mg/kg d1 only): +5%
- Range of death (dying animals) ([2]; 27.0 mg/kg d1 only): 19,26 days
- Long-term survivors ([2]; 27.0 mg/kg d1 only): 5/7
- Median increase in lifespan ([2]; 40.5 mg/kg d1 only): > +500%
- Net mean percent weight change, day 7 ([2]; 40.5 mg/kg d1 only): -0.5%
- Range of death (dying animals) ([2]; 40.5 mg/kg d1 only): 13,27 days
- Long-term survivors ([2]; 40.5 mg/kg d1 only): 5/7
